Key:
[1] = tested on: K^+ channel conductances; test: Basolateral K^+ conductance in T84 monolayers (Ussing chambers); type: cell-based; settings: 5 μM, 24 hrs
Experimental: To measure basolateral K^+ conductance T84 cell monolayers in Ussing chambers were apically permeabilized with amphotericin B (50 μmol/L). A K^+ gradient (123.2-5.2 mmol/L) was created across the basolateral membrane by addition of a high K^+ (123.2 mmol/L) Ringers solution, in which NaCl is substituted with K^+-gluconate, to the apical reservoir. Ouabain (100 μmol/L) was added basolaterally to inhibit Na^+/K^+-ATPase pump activity. Under these conditions changes in Isc are wholly reflective of changes in basolateral K^+ conductance (IK^+).

[2] = tested on: T84 cells; test: Transepithelial conductance of T84 monolayers as a measure of cell viability; type: cell-based; settings: various concentrations for 24 hrs
Experimental: Monolayers were then mounted in Ussing chambers and transepithelial conductance measurements were made as a measure of cell viability (n=4-13). Only at concentrations>10 μM did GW 4064 exert toxic effects on T84 cells. FIG. 5.

[3] = tested on: Na^+/K^+ ATPase pump; test: Abundance (western blotting) and surface expression (biotinylation) of Na^+/K^+ ATPase pump in T84 cells; type: cell-based; settings: 5 μM, 24 hrs
Experimental: Western Blotting: T84 monolayers were washed with ice-cold PBS and lysed (1% Nonidet P-40, 150 mmol/L NaCl, 50 mmol/L Tris Base, 1×Complete mini EDTA free protease inhibitor tablet, 0.1 mg/l mL PMSF, 1 mmol/L Na3VO4). Lysates were collected, centrifuged at 15,294×g for 10 minutes at 4° C., the pellet discarded, and the supernatant sonicated with 3×10 second pulses in order to disrupt membrane proteins. Samples were normalized for protein content and 2× gel loading buffer (50 mM Tris HCl, 100 mM DTT, 40% glycerol and 4% SDS) was added. Samples were then heated at 95° C. for 5 min, separated by sodium dodecyl sulphate polyacrylamide gel electrophoresis and transferred to PVDF membranes. Membranes were pre-blocked in 5% blocking buffer (Marvel in PBS) for 60 minutes at room temperature followed by incubation with primary antibody in 5% blocking buffer overnight at 4° C. […] After further washing (×4) in TBST, immunoreactive proteins were detected by enhanced chemiluminescence (Amersham Biosciences, UK).
Cell Surface Biotinylation: Following treatment T84 cell monolayers were washed ×3 in ice-cold PBS and freshly prepared biotinylation buffer (1 mg/mL sulfo-NHS-biotin (Pierce) in PBS) was added basolaterally. […] Na^+/K^+-ATPase □ subunit was detected by western blot analysis as described above.

[4] = tested on: T84 cells; test: Cl^− secretory (Isc) responses of T84 cell monolayers in Ussing chambers; type: cell-based; settings: for Isc (Cl^− secretory) response to carbachol (CCh) / Isc (Cl^− secretory) response to forskolin: T84 monolayers pretreated with 1 μM for 24 hrs; for Isc (Cl^− secretory) response to carbachol (CCh): carbachol 100 μM; for Isc (Cl^− secretory) response to forskolin: forskolin 10 μM
Experimental: Measurements of chloride secretion: Cultured T84 epithelial cells were employed as a model of the colonic epithelium. T84 cells were grown as monolayers on filter supports. When grown in this way T84 cells retain many of the characteristics of native intestinal epithelium and are widely considered as being among the best reductionist models for analysing intestinal epithelial secretory responses. […] After this time they were washed of GW 4064, mounted in Ussing chambers, and voltage-clamped to zero potential difference. Under these conditions, transepithelial ion transport can be measured as changes in short-circuit current (Isc) and such changes in Isc across T84 cells have been established as being wholly due to Cl^− ion secretion. After mounting the cells in Ussing chambers we measured Cl^− secretory responses to both the calcium- and cAMP-dependent agonists, carbachol (100 μM) and forskolin (10 μM), respectively.

[5] = tested on: T84 cells; test: Cellular ATP levels in T84 cells (ENLITEN ATP Assay); type: cell-based; settings: 5 μM, 24 hrs
Experimental: Cells were then lysed with hypotonic lysis buffer (2 mM EDTA, 100 mM Trizma base, brought to pH 7.75 with acetic acid) and frozen at −80° C. The lysate was later assayed for ATP content using the ENLITEN® ATP Assay System (Promega, Madison, Wis.).

[6] = tested on: mouse colon; test: Ex vivo Isc measurements in muscle-stripped colon after intraperitoneal dosing of mice; settings: 100 mg/kg intraperitoneally, 24 hrs
Experimental: Animal Studies: Male C57BL6 mice were bred and maintained in an environmentally controlled animal facility at Beaumont Hospital. Experiments were performed on 6-9 week old animals and were in compliance with Irish Department of Health and Children regulations and approved by the Beaumont Hospital Ethics Committee. […] The distal colon was removed, stripped of underlying smooth muscle, and mounted in Ussing chambers (window area=0.3 cm^2). Results were normalized and expressed as ΔIsc (μA/cm^2).
Administration of a potent and selective FXR agonist inhibits Cl^− secretory responses in mouse colon. FIG. 10.

How did the “K^+ channel conductances” value [1] turn out when GW4064 was run?
Its value is “did not significantly alter”.

What about the “Concentration exerting toxic effects on T84 cells (transepithelial conductance)” value [2] of the same substance?
The value was > 10 µM.

What about the “Cellular abundance of the catalytic α subunit of Na^+/K^+ ATPase (western blotting)” value [3] of the same substance?
The value was “does not alter”.

And the “Surface expression of Na^+/K^+ ATPase pump (biotinylation)” value [3]?
Its value is “does not alter”.

And the “CCh-induced Cl^− secretory responses” value ([4]; GW4064 5 μM, 24 hrs)?
Its value is “inhibited”.

What about the “Isc (Cl^− secretory) response to carbachol (CCh)” value [4] of the same substance?
Its value is “significantly attenuates”.

What about the “Isc (Cl^− secretory) response to carbachol (CCh)” value ([4]; listed as GW 4064) of the same substance?
The value was “significantly reduce”.

What about the “Isc (Cl^− secretory) response to forskolin” value [4] of the same substance?
The value was “significantly attenuates”.

What about the “Isc (Cl^− secretory) response to forskolin” value ([4]; listed as GW 4064) of the same substance?
Its value is “significantly reduce”.

And the “Time-dependence of attenuation of Cl^− secretory responses to CCh” value ([4]; pretreated 5 μM for various periods of time, CCh 100 μM)?
The value was “attenuates Cl^− secretion in a time-dependent fashion”.

What about the “Concentration-dependence of antisecretory actions (Cl^− secretory responses to CCh and forskolin)” value ([4]; pretreated 0.1-10 μM for 24 hrs) of the same substance?
The value was “concentration-dependent”.

And the “Cellular ATP levels” value [5]?
Its value is “does not alter”.

What about the “Ex vivo Isc response of colon to CCh” value [6] of the same substance?
Its value is “significantly attenuated”.

And the “Ex vivo Isc response of colon to forskolin” value [6]?
The value was “significantly attenuated”.

From patent US20110257139A1, “TREATMENT OF DIARRHOEA” (ROYAL COLLEGE OF SURGEONS IN IRELAND, priority 2008, published 2011)
